The term IC50 denotes the point on the concentration scale where inhibition reaches its midpoint. A higher IC50 goes with weaker potency in that assay.

Experimental findings from BindingDB's records for doi:10.1002/cbic.200400192 (Max-Planck-Institut FÜR Molekulare Physiologie, 2005) are described below.

Test in all cases: Inhibition Assay
One experiment concerns the target Angiopoietin-1 receptor (Homo sapiens, UniProt Q02763). As to the method:
(§1) The kinase-catalyzed phosphorylation of poly(Glu4-Tyr) in the presence of varying concentrations of inhibitor was determined. The kinase were employed as fusion proteins of glutathion-S-transferase (GST) and the kinase domain. The relative amount of phosphorylated substrate was quantified by antiphosphotyrosine enzyme-linked immunosorbent assay.

The target in experiment [1] is Epidermal growth factor receptor (Homo sapiens, UniProt P00533). On the procedure: as §1
Experiment [2] addresses Vascular endothelial growth factor receptor 2 (Homo sapiens, UniProt P35968). As to the method:
as §1

Experiment [3] deals with Fibroblast growth factor receptor 1 (Homo sapiens, UniProt P11362). As to the method: as §1
Experiment [4] concerns the target Vascular endothelial growth factor receptor 3 (Homo sapiens, UniProt P35916). On the procedure: as §1
The target in experiment [5] is Insulin-like growth factor 1 receptor (Homo sapiens, UniProt P08069). As to the method:
as §1

Sequence of Vascular endothelial growth factor receptor 3 (P35916 whole entry): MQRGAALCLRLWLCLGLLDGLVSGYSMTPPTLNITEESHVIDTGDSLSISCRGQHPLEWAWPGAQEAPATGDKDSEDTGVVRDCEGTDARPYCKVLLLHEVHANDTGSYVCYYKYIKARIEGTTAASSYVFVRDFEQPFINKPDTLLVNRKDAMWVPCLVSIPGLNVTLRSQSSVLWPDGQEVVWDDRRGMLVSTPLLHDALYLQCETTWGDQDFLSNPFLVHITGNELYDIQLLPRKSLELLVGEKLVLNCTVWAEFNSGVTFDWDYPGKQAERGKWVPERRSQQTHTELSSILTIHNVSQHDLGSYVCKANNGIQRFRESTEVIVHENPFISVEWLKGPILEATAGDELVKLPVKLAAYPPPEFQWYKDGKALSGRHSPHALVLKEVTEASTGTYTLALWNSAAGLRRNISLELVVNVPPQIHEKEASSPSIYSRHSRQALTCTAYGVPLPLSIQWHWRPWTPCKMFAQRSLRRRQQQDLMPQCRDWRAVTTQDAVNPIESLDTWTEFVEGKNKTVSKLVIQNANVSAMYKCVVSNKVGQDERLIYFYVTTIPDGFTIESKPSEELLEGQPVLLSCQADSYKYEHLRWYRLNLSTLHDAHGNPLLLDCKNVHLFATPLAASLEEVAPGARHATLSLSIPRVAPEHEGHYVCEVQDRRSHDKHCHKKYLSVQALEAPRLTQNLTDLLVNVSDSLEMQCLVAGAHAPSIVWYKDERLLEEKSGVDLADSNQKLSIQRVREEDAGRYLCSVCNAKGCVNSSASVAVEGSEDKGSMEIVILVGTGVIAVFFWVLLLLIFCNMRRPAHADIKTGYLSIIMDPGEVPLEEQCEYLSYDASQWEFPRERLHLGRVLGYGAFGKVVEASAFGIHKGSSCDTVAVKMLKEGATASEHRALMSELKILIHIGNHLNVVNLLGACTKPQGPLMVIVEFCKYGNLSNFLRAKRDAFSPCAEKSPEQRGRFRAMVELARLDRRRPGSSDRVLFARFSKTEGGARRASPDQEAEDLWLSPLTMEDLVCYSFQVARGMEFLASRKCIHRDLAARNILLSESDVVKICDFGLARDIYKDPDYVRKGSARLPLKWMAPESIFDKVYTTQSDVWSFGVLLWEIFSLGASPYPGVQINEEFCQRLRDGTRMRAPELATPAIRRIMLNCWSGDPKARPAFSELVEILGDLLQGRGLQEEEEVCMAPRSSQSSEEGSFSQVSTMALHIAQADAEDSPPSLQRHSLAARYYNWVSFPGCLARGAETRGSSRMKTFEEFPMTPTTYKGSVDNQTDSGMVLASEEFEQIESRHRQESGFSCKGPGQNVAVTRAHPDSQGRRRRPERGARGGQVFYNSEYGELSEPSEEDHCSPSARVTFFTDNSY
Sequence of Epidermal growth factor receptor (P00533 whole entry): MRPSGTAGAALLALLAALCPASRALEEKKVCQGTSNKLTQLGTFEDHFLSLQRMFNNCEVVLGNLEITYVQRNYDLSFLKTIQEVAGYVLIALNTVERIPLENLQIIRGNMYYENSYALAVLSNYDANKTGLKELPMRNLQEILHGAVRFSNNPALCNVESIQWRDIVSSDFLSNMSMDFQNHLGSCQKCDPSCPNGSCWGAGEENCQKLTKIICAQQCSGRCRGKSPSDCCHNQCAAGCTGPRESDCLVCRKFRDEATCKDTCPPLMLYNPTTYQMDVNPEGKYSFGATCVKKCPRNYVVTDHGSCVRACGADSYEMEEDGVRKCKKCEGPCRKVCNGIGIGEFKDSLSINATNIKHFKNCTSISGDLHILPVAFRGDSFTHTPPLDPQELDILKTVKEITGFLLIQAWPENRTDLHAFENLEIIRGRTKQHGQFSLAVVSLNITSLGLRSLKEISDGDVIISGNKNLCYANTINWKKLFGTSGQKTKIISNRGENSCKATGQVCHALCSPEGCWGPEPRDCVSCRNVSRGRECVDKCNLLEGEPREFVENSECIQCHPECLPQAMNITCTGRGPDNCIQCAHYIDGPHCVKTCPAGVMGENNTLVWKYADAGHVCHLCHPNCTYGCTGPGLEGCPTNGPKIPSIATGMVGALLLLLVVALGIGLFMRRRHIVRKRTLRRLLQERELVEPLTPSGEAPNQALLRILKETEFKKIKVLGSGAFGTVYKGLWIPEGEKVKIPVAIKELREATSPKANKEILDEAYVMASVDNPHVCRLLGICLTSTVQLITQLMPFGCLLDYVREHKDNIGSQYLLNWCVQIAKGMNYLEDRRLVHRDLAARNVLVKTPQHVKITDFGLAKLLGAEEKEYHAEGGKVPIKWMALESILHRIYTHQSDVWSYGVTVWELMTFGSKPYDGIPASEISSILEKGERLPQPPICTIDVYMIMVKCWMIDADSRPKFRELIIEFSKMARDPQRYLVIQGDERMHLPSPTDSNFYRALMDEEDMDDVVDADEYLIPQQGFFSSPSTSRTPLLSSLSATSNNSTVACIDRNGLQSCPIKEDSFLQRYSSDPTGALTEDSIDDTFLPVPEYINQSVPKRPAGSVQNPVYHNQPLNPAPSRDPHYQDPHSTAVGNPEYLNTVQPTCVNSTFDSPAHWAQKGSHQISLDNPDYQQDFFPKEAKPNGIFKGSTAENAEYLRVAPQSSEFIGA
Sequence of Vascular endothelial growth factor receptor 2 (P35968 whole entry): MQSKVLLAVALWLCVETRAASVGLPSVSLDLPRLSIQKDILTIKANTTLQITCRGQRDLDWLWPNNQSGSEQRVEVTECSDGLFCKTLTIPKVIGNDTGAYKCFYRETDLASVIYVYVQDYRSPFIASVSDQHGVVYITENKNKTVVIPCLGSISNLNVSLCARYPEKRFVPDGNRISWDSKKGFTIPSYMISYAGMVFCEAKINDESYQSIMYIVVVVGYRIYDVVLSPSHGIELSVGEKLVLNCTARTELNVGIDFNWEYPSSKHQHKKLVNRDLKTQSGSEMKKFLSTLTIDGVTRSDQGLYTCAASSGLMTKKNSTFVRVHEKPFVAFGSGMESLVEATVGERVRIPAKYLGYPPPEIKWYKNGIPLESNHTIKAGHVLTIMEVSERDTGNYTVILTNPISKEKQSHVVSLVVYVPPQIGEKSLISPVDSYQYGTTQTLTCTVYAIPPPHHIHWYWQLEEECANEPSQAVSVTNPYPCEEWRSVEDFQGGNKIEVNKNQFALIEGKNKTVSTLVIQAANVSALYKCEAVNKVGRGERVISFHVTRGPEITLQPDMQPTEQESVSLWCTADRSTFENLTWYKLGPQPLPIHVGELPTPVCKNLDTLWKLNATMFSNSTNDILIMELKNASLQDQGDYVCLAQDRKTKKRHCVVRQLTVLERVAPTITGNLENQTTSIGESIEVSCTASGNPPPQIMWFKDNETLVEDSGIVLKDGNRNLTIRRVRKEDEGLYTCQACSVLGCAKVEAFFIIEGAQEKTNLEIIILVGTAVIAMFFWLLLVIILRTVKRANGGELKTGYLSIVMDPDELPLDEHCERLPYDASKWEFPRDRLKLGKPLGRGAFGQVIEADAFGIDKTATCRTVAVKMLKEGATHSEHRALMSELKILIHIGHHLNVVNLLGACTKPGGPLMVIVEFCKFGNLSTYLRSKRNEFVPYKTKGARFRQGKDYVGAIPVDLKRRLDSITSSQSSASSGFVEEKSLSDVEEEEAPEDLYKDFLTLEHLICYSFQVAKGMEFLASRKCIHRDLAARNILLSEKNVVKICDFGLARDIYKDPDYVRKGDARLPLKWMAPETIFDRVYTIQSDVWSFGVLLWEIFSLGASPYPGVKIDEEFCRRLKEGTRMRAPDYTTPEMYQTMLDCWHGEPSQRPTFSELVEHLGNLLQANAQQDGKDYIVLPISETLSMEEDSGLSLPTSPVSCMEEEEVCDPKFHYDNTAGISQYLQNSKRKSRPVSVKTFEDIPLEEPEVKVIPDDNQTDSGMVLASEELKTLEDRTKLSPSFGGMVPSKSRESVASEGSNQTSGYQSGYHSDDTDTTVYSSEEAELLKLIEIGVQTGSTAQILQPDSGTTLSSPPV
Sequence of Angiopoietin-1 receptor (Q02763 whole entry, the tested form may be a part): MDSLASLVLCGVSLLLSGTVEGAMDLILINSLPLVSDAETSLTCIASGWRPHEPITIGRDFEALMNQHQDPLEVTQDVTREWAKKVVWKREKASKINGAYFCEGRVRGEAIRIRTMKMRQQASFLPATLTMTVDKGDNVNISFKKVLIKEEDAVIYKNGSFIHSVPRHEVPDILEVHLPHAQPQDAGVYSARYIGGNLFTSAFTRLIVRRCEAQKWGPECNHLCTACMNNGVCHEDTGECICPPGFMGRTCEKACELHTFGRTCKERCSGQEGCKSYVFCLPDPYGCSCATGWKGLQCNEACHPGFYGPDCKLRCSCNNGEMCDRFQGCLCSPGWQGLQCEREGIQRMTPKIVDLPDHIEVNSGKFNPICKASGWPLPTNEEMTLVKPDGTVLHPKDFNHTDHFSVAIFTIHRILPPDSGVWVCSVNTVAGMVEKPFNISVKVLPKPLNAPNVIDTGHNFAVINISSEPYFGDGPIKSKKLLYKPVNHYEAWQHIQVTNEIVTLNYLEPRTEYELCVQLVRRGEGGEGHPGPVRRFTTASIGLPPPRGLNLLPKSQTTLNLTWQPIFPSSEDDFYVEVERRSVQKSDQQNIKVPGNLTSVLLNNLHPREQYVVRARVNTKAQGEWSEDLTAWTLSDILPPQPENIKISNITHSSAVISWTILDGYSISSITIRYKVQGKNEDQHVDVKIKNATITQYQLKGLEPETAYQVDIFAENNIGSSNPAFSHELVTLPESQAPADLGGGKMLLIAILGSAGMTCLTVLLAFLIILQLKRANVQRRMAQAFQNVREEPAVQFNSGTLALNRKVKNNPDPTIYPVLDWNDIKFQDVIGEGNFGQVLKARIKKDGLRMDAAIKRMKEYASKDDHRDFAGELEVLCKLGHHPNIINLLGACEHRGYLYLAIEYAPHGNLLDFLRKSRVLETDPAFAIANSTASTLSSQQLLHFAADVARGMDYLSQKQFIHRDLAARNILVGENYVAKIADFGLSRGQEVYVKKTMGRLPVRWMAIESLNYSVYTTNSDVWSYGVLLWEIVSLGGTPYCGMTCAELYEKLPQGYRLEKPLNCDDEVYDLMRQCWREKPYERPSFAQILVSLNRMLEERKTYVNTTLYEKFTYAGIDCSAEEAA

Consider `CCC1=C(CC(=O)O)c2cc(F)ccc2/C1=C\c1ccoc1` [Sulindac analogue, 15], for which the IC50 against Angiopoietin-1 receptor worked out at 1 µM; in experiment [1] it was 0.9 µM; in experiment [2] it was 5 µM; in experiment [3], 3 µM.

`CC1=C(CC(=O)O)c2cc(Cl)ccc2/C1=C\c1ccoc1` [Sulindac analogue, 17]: the IC50 against Angiopoietin-1 receptor is 5 µM; in experiment [1] it was 8 µM; in experiment [4] it was 14 µM; in experiment [5], 7 µM.

In turn, `CC1=C(CC(=O)O)c2cc(F)ccc2/C1=C\c1ccc(F)c(F)c1` [Sulindac analogue, 10] came in with an IC50 at Angiopoietin-1 receptor of 5 µM.

Turning to `CCC1=C(CC(=O)O)c2cc(F)ccc2/C1=C\c1ccc(OCc2ccccc2)cc1` [Sulindac analogue, 16], on Angiopoietin-1 receptor, 2 µM corresponded to half-maximal inhibition (IC50).

Take `CC1=C(CC(=O)O)c2ccc(Br)cc2/C1=C\c1ccoc1` [Sulindac analogue, 21]: the IC50 amounted to 3 µM against Angiopoietin-1 receptor; 22 µM in experiment [1]; 24 µM in experiment [2]; 15 µM in experiment [4]; 13 µM in experiment [5].

`CC1=C(CC(=O)O)c2cc(I)ccc2/C1=C\c1cccc(OCc2ccccc2)c1` [Sulindac analogue, 22] had an IC50 at Angiopoietin-1 receptor of 7 µM.

With `CCC1=C(CC(=O)O)c2cc(C#Cc3ccccc3)ccc2/C1=C\c1ccsc1` [Sulindac analogue, 24], on Angiopoietin-1 receptor, the IC50 is 5 µM. The IC50 values of the last two molecules are within 1.5-fold of each other.

For `CC1=C(CC(=O)O)c2ccc(Br)cc2/C1=C/c1ccsc1` [Sulindac analogue, 20], the results for the IC50 (against Angiopoietin-1 receptor; in experiment [5]) were 11 µM and 71 µM, respectively.

On to `CC1=C(CC(=O)O)c2cc(F)ccc2/C1=C\c1cccs1` [Sulindac analogue, 12], for which the IC50 against Angiopoietin-1 receptor was found to be 5 µM.

Turning to `CCC1=C(CC(=O)O)c2cc(/C=C/C(=O)OC(C)(C)C)ccc2/C1=C\c1ccsc1` [Sulindac analogue, 23], the IC50 on Angiopoietin-1 receptor turned out to be 5 µM.

On Angiopoietin-1 receptor, `CC1=C(CC(=O)O)c2cc(Br)ccc2/C1=C\c1ccccc1` [Sulindac analogue, 18] gave an IC50 of 1 µM. Against the preceding molecule, the IC50 is about 5-fold lower.

With `CC1=C(CC(=O)O)c2ccc(Br)cc2/C1=C\c1ccsc1` [Sulindac analogue, 19], the IC50 against Angiopoietin-1 receptor was 1 µM; in experiment [1] it was 12 µM; in experiment [2] it was 3 µM; in experiment [4], 4 µM; in experiment [3], 23 µM; in experiment [5], 4 µM.

With `CC1=C(CC(=O)O)c2cc(F)ccc2/C1=C\c1ccoc1` [Sulindac analogue, 14], the IC50 in experiment [2] amounted to 8 µM.

For `CC1=C(CC(=O)O)c2cc(F)ccc2/C1=C\c1ccsc1` [Sulindac analogue, 13], the IC50 at Angiopoietin-1 receptor came out at 0.6 µM; in experiment [2], 14 µM; in experiment [4] it was 15 µM.

As for `CC1=C(CC(=O)O)c2cc(F)ccc2/C1=C\c1cccc(OCc2ccccc2)c1` [Sulindac analogue, 11], the IC50 at Angiopoietin-1 receptor worked out at 11 µM.
